Results on 5 molecules are retold here after patent US6462032B1, “Cyclic regimens utilizing indoline derivatives” (Wyeth, priority 1999, dated 2002).

By melting point is commonly meant the temperature of the solid-liquid transition. In general, pIC50 refers to the negative decadic logarithm of the IC50, by convention in mol/L. A lower pIC50 goes with a large IC50.

pIC50: −log10 of the molar value. Values joined by “and” are separate entries in the source; they are usually repeats but may differ in a detail not shown here. Identical values can stand only once.

Data set [1] deals with rat uterine decidualization. Put plainly: Rat decidualization assay. As to conditions: ovariectomized rats, s.c.; for Estimated average EC50: average of dose-response curves; for EC50: uterine wet weight (decidual response), individual studies.
For a further data set, the system named is T47D cells. The experiment in a line: T47D cell proliferation assay (BrdU incorporation). In kind it is cell-based. As to conditions: decrease in trimegestone induced BrdU incorporation, individual experiments. As for the experimental part:
3. T47D Cell Proliferation Assay
The objective of this assay is the determination of progestational and antiprogestational potency by using a cell proliferation assay in T47D cells. A compound's effect on DNA synthesis in T47D cells is measured.
DMEM:F12(1:1) (GIBCO, BRL) supplemented with 10% (v/v) fetal bovine serum (not heat-inactivated), 100 U/ml penicillin, […], and 2 mM GlutaMax (GIBCO, BRL).
Minimum Essential Medium (MEM) (#51200-038GIBCO, BRL) phenol red-free supplemented with 0.5% charcoal stripped fetal bovine serum, 100 U/ml penicillin, […] streptomycin, and 2 mM GlutaMax (GIBCO, BRL). […]
At the end of BrdU labeling, the medium is removed and BrdU incorporation is measured using a cell proliferation ELISA kit (#RPN 250, Amersham Life Science) according to manufacturer's instructions. […] Then 25 μl of 1 M sulfuric acid is added to each well to stop color reaction and optical density is read in a plate reader at 450 nm within 5 min.
Square root-transformed data are used for analysis of variance and nonlinear dose response curve fitting for both agonist and antagonist modes. […] EC50 or IC50 values are calculated from the retransformed values.
Trimegestone and medroxyprogesterone acetate (MPA) are reference progestins and RU486 is the reference antiprogestin. All reference compounds are run in fill dose-response curves and the EC50 or IC50 values are calculated.
(In general: Uptake of a labelled nucleoside into DNA is a usual measure of proliferation.)

As to `O=C1CCC(c2cc(F)cc(Br)c2)CC12CNc1ccccc12` (stereo not shown) [Example 28, 5-(3-Bromo-5-fluorophenyl)spiro[cyclohexane-1,3-[3H]indol]-2(1′H)-one], the melting point was in the range of 194 to 196 °C. Consider `C#C[C@]1(O)CC[C@H]2[C@@H]3CCC4=CC(=O)CC[C@@H]4[C@H]3CC[C@@]21CC` [Levonorgestrel, levonorgestrel], for which, in data set [1], the “Estimated average EC50” value is listed as 0.10 mg/kg. s.c; the EC50 was 0.08 mg/kg, s.c. and 0.12 mg/kg, s.c. and 0.09 mg/kg, s.c. (2×). `CCC1C(=O)Nc2ccc(-c3cccc(Cl)c3)cc21` (stereo not shown) [Example 6, 5-(3Chloro-phenyl)-3-ethyl-1,3-dihydro-indol-2-one] had a melting point of 100 to 101 °C. Turning to `CC#C[C@]1(O)CC[C@H]2[C@@H]3CCC4=CC(=O)CCC4=C3[C@@H](c3ccc(N(C)C)cc3)C[C@@]21C` [RU486], in the data set on T47D cells, the negative logarithm of the IC50 (pIC50) is 10.80 and 10.74. As for `C#C[C@]1(O)CC[C@H]2[C@@H]3CCC4=CC(=O)CC[C@@H]4[C@H]3C(=C)C[C@@]21CC` [3-Ketodesogestrel, 3-ketodesogestrel], in data set [1], the “Estimated average EC50” value was 0.10 mg/kg. s.c; the EC50 is 0.10 mg/kg, s.c. and 0.06 mg/kg, s.c. and 0.11 mg/kg, s.c.
